Test system: Plasmodium falciparum NF54 gametocytes
Details: 384, incubation time: 72 h
Protocol: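 Known antimalarials and MMV control compounds in dose response against each stage (I–V) […] The fitted EC50 is reported as IC50 in µM; '>' marks the top dose reached without a curve.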

[1] = gametocyte stage: Stage I Dose Response IC50 (µM), assay protocol: TSSA
[2] = gametocyte stage: Stage II Dose Response IC50 (µM), assay protocol: TSSA
[3] = gametocyte stage: Stage III Dose Response IC50 (µM), assay protocol: TSSA
[4] = gametocyte stage: Stage IV Dose Response IC50 (µM), assay protocol: TSSA
[5] = gametocyte stage: Stage V Dose Response IC50 (µM), assay protocol: TSSA
[6] = gametocyte stage: Stage I Dose Response IC50 (µM), assay protocol: SaLSSA
[7] = gametocyte stage: Stage II Dose Response IC50 (µM), assay protocol: SaLSSA
[8] = gametocyte stage: Stage III Dose Response IC50 (µM), assay protocol: SaLSSA
[9] = gametocyte stage: Stage IV Dose Response IC50 (µM), assay protocol: SaLSSA
[10] = gametocyte stage: Stage V Dose Response IC50 (µM), assay protocol: SaLSSA

| SMILES | IC50 of gametocyte viability [1] | IC50 of gametocyte viability [2] | IC50 of gametocyte viability [3] | IC50 of gametocyte viability [4] | IC50 of gametocyte viability [5] | IC50 of gametocyte viability [6] | IC50 of gametocyte viability [7] | IC50 of gametocyte viability [8] | IC50 of gametocyte viability [9] | IC50 of gametocyte viability [10] |
| --- | --- | --- | --- | --- | --- | --- | --- | --- | --- | --- |
| CC(C)(N)CNC(=O)CC1CCC2(CC1)OOC1(O2)C2CC3CC(C2)CC1C3 (stereo not given) | 0.00821 µM | 0.00599 µM | 0.00837 µM | 0.00742 µM | > 12.5 µM |  |  |  |  |  |
| CC(C)(N)CNC(=O)C[C@H]1CC[C@]2(CC1)OOC1(O2)C2CC3CC(C2)CC1C3 (stereo not given in full) |  |  |  |  |  | 0.00769 µM | 0.00395 µM | 0.00158 µM | 0.00787 µM | > 12.5 µM |
| OC(c1cc(C(F)(F)F)nc2c(C(F)(F)F)cccc12)C1CCCCN1 (racemic) [Mefloquine (Racemic)] | 0.0569 µM | 0.117 µM | 0.127 µM | 2.08 µM | 5.77 µM |  |  |  |  |  |
| O[C@@H](c1cc(C(F)(F)F)nc2c(C(F)(F)F)cccc12)[C@H]1CCCCN1 (racemic) [Mefloquine (Racemic)] |  |  |  |  |  | 0.0441 µM | 0.052 µM | 0.143 µM | 0.818 µM | 0.132 µM |
| CCN(CC)CCCNc1ccnc2cc(Cl)ccc12 [AQ-13] |  |  |  |  |  | 0.0426 µM | 0.0335 µM | 0.484 µM | 6.47 µM | 6.05 µM |
| CCN(CC)Cc1cc(Nc2ccnc3cc(Cl)ccc23)ccc1O [Amodiaquine] | 0.0134 µM | 0.0088 µM | 0.107 µM | 5.4 µM | > 9.39 µM | 0.0118 µM | 0.00579 µM | 0.0961 µM | 2.46 µM | 1.78 µM |
| CO[C@H]1O[C@@H]2O[C@@]3(C)CC[C@H]4[C@H](C)CC[C@@H]([C@H]1C)[C@@]24OO3 [Artemether] | 0.0183 µM | 0.0125 µM | 0.0175 µM | 0.0184 µM | > 12.5 µM | 0.0159 µM | 0.00459 µM | 0.00617 µM | 0.019 µM | > 12.5 µM |
| C[C@@H]1CC[C@H]2[C@@H](C)C(=O)O[C@@H]3O[C@@]4(C)CC[C@@H]1[C@]32OO4 [Artemisinin] [listing 1 of 2 here] |  |  |  |  |  | 0.0243 µM | 0.0204 µM | 0.0118 µM | 0.0373 µM | > 12.5 µM |
| C[C@@H]1CC[C@H]2[C@@H](C)C(=O)O[C@@H]3O[C@@]4(C)CC[C@@H]1[C@]32OO4 [Artemisinin] [listing 2 of 2 here] | 0.027 µM | 0.0188 µM | 0.0218 µM | 0.0322 µM | > 12.5 µM |  |  |  |  |  |
| C[C@H]1[C@H](N2CCS(=O)(=O)CC2)O[C@@H]2O[C@@]3(C)CC[C@H]4[C@H](C)CC[C@@H]1[C@@]24OO3 [Artemisone] [listing 1 of 2 here] |  |  |  |  |  | 0.00277 µM | 0.00176 µM | 0.00339 µM | 0.00421 µM | > 12.5 µM |
| C[C@H]1[C@H](N2CCS(=O)(=O)CC2)O[C@@H]2O[C@@]3(C)CC[C@H]4[C@H](C)CC[C@@H]1[C@@]24OO3 [Artemisone] [listing 2 of 2 here] | 0.00264 µM | 0.00244 µM | 0.00605 µM | 0.00548 µM | > 7.85 µM |  |  |  |  |  |
| C[C@H]1[C@@H](O)O[C@@H]2O[C@@]3(C)CC[C@H]4[C@H](C)CC[C@@H]1[C@@]24OO3 [Artenimol (Dihydro artemisinin)] [listing 1 of 2 here] |  |  |  |  |  | 0.00579 µM | 0.0027 µM | 0.00674 µM | 0.0207 µM | > 12.5 µM |
| C[C@H]1[C@@H](O)O[C@@H]2O[C@@]3(C)CC[C@H]4[C@H](C)CC[C@@H]1[C@@]24OO3 [Artenimol (Dihydro artemisinin)] [listing 2 of 2 here] | 0.00685 µM | 0.00766 µM | 0.0152 µM | 0.0403 µM | > 12.5 µM |  |  |  |  |  |
| C[C@H]1[C@H](OC(=O)CCC(=O)O)O[C@@H]2O[C@@]3(C)CC[C@H]4[C@H](C)CC[C@@H]1[C@@]24OO3 [Artesunate] |  |  |  |  |  | 0.00773 µM | 0.00351 µM | 0.0126 µM | 0.0491 µM | > 10.6 µM |

— the supplement of paper PMC4723716
